{
  "source": "patent US20250249098A1",
  "about": "“CRYOPRESERVATION OF NK CELL PRODUCTS FOR OFF-THE-SHELF IMMUNOTHERAPY” (BOARD OF REGENTS, THE UNIVERSITY OF TEXAS SYSTEM, priority 2022, published 2025)",
  "key": {"[1]": {"tested_on": "SKOV3 cells and/or UMRC3 cells", "experiment": "xCELLigence impedance assay, thawed iC9/CD27 CAR/IL-15-NK cells", "assay_type": "cell-based", "details": "pre-cryopreservation treatment at 1 micromolar; E:T 2:1; vs no pre-treatment", "method": "The ovarian cancer cell line (SKOV3) (FIG. 16A) and renal cell carcinoma cell line (UMRC3) (FIG. 16B), were grown in 96 well RTCA E-Plates overnight."}, "[2]": {"tested_on": "CAR-NK cells", "experiment": "Post-thaw viability of CAR-NK cells by flow cytometry (Annexin V / cell death marker)", "assay_type": "cell-based, human", "method": "(§1) CAR-NK cells were isolated, pre-activated, expanded, and treated with Dasatinib for 24, 48, or 72 hours prior to cryopreservation as described in Example 1 (or not treated with Dasatinib as control). Immediately prior to cryopreservation, CAR-NK cells were washed to remove the deactivating agent."}, "[3]": {"tested_on": "CAR-NK cells", "experiment": "Post-thaw CAR expression of CAR-NK cells by flow cytometry", "assay_type": "cell-based, human", "method": "as §1"}, "[4]": {"tested_on": "A375 cells and/or Saos-2 cells", "experiment": "xCELLigence impedance assay, thawed NYESO-TCR-NK cells", "details": "pre-cryopreservation treatment at 1 micromolar; E:T 2:1; vs no pre-treatment", "method": "As shown in FIGS. 17A-17C, addition of various tyrosine kinase inhibitors prior to freezing enhanced the antitumor cytotoxicity of TCR-NK cells post-thaw against solid cancer, as determined by xCELLigence impedance assays. The melanoma cell line (A375) (FIG. 17A) and osteosarcoma cell line (Saos-2) (FIG. 17B), were grown in 96 well RTCA E-Plates overnight. The next day, frozen NYESO targeting TCR-NK cells that were not treated or were treated pre-cryopreservation with a tyrosine kinase inhibitor (Dasatinib, Bosutinib, Nilotinib, or Saracatinib; at a final concentration of 1 micromolar) were thawed and added at 2:1 effector to target (E:T) ratio. The cancer cell growth was measured continuously over time (X axis) by the xCELLigence device and represented as normalized cell index (Y axis)."}, "[5]": {"tested_on": "U266 cells", "experiment": "Chromium release assay, thawed NYESO-TCR-NK cells", "assay_type": "cell-based", "details": "pre-cryopreservation treatment; E:T 2:1, 1:1, 0.5:1, 0.25:1; vs no pre-treatment", "description": "After four hours, chromium release was measured, which corresponded to cancer cell death."}, "[6]": {"details": "24 h treatment prior to cryopreservation"}, "[7]": {"details": "48 h treatment prior to cryopreservation"}},
  "data": [
    {"smiles": "CN1CCN(CCOc2cc(OC3CCOCC3)c3c(Nc4c(Cl)ccc5c4OCO5)ncnc3c2)CC1", "note": "[Saracatinib]", "values": [
      {"measurement": "cytotoxicity of thawed CAR-NK cells (normalized cell index)", "setting": "[1]", "result": "increased cytotoxicity"}
    ]},
    {"smiles": "Cc1nc(Nc2ncc(C(=O)Nc3c(C)cccc3Cl)s2)cc(N2CCN(CCO)CC2)n1", "note": "[Dasatinib]", "values": [
      {"measurement": "living cell percentage", "setting": "[2]; [6]", "result": 61.7, "unit": "%"},
      {"measurement": "living cell percentage", "setting": "[2]; [7]", "result": 68.8, "unit": "%"},
      {"measurement": "living cell percentage", "setting": "[2]; 72 h treatment prior to cryopreservation", "result": 70.9, "unit": "%"},
      {"measurement": "CAR Mean Fluorescence Intensity (MFI)", "setting": "[3]; [6]", "result": 7987},
      {"measurement": "percentage of cells that are CAR positive", "setting": "[3]; [6]", "result": 64.9, "unit": "%"},
      {"measurement": "CAR Mean Fluorescence Intensity (MFI)", "setting": "[3]; [7]", "result": 4620},
      {"measurement": "percentage of cells that are CAR positive", "setting": "[3]; [7]", "result": 55.4, "unit": "%"},
      {"measurement": "cytotoxicity of thawed CAR-NK cells (normalized cell index)", "setting": "[1]", "result": "increased cytotoxicity"},
      {"measurement": "cytotoxicity of thawed TCR-NK cells (normalized cell index)", "setting": "[4]", "result": "increased cytotoxicity"},
      {"measurement": "cytotoxicity of thawed TCR-NK cells (chromium release after four hours)", "setting": "[5]", "result": "increased cytotoxicity"}
    ]},
    {"smiles": "Cc1cn(-c2cc(NC(=O)c3ccc(C)c(Nc4nccc(-c5cccnc5)n4)c3)cc(C(F)(F)F)c2)cn1", "note": "[Nilotinib]", "values": [
      {"measurement": "cytotoxicity of thawed CAR-NK cells (normalized cell index)", "setting": "[1]", "result": "increased cytotoxicity"},
      {"measurement": "cytotoxicity of thawed TCR-NK cells (normalized cell index)", "setting": "[4]", "result": "increased cytotoxicity"}
    ]},
    {"smiles": "COc1cc(Nc2c(C#N)cnc3cc(OCCCN4CCN(C)CC4)c(OC)cc23)c(Cl)cc1Cl", "note": "[Bosutinib]", "values": [
      {"measurement": "cytotoxicity of thawed TCR-NK cells (normalized cell index)", "setting": "[4]", "result": "increased cytotoxicity"}
    ]}
  ]
}
